Data from ChEMBL document CHEMBL5724803, “Viability screening in matched tumor and normal assay results for EUbOPEN Chemogenomics Library” (2024).

Tested on: Colon organoid
Type: functional, Homo sapiens

## CCC(=N\O)/C(C)=C/c1ccc(F)c(C)c1 [A-226]
  Cell Viability Ratio: 1.032

## CCC(=O)N[C@H]1CC[C@@H](C(=O)N(C)c2ccc(-c3nc4ccccc4o3)cc2)C1 [BI 99179]
  Cell Viability Ratio: 0.6872

## CC(=O)N1CCC(c2ccc(C(=O)NC(=N)N)cc2C(F)(F)F)CC1 [BI 9627]
  Cell Viability Ratio: 0.903

## NS(=O)(=O)c1cc(NC(=O)C2(c3ccccc3Cl)CC2)ccc1Oc1cccc(Cl)c1 [BAY-207]
  Cell Viability Ratio: 0.9336

## Nc1nc(NCc2ccccc2)nc(-c2ccccc2CO)n1 [Ogerin]
  Cell Viability Ratio: 1.099

## O=C(N1CCS(=O)(=O)CC1)N1C[C@H](c2ccc(OC(F)(F)F)cc2)C[C@H](c2nc(C3CC3)no2)C1 [BAY-386]
  Cell Viability Ratio: 0.9974

## CN(C)C(=O)Cn1cc(-c2ccc(-c3nnc4ccccn34)cc2)cn1
  Cell Viability Ratio: 1.225

## CN(C)C(=O)Cn1cc(-c2ccc(-c3cncc4ccccc34)cc2)cn1
  Cell Viability Ratio: 0.9698

## CCC(=O)N[C@@H]1CC[C@H](C(=O)N(C)c2ccc(-c3nc4ccccc4o3)cc2)C1 [BI 99990]
  Cell Viability Ratio: 1.309

## CCNC(=O)c1cc2c(N3CCOC[C@@H]3C)ccnc2n1C
  Cell Viability Ratio: 1.086

## CCCCN(CCCC)C(=O)CN1C[C@@H](c2cc(OC)c3c(c2)OCO3)[C@H](C(=O)O)[C@H]1CC(C)(C)CCC [A-545]
  Cell Viability Ratio: 1.095

## CN1CCN(c2cnc3c(C4CCN(C(=O)c5ccc(OC(F)(F)F)cc5N)CC4)ncnc3c2)CC1 [BAY-885]
  Cell Viability Ratio: 0.9479

## C[C@H](c1ccnc(Nc2nc3ccc(-c4cc(N(C)C)ncn4)cc3[nH]2)c1)N1CCN(C(=O)CC(F)(F)F)CC1 [BAY-985]
  Cell Viability Ratio: 0.822

## CNC(=O)c1cc(C(=O)NC2CC2)cn(Cc2ccccc2)c1=O [GSK620]
  Cell Viability Ratio: 0.8825

## CO[C@H]1CC[C@H](CNc2ccc(S(=O)(=O)NC(=O)c3ccc(N4CCN(CC5=C(c6ccc(Cl)cc6)CC(C)(C)CC5)CC4)cc3Oc3cnc4[nH]ccc4c3)cc2[N+](=O)[O-])CC1 [A-1211212]
  Cell Viability Ratio: 0.9488

## O=C1c2ccc(Nc3ccc(F)cc3F)cc2CCc2ccc(OC[C@H](O)CO)cc21 [Skepinone-L]
  Cell Viability Ratio: 1.035

## Cc1cnc(-c2cc(Cl)ccc2F)cc1-n1c(=O)n(CC(N)=O)c2ccccc21 [Al11]
  Cell Viability Ratio: 1.079

## Cc1c(NC(=O)c2cc(C(N)=O)nc3cc(F)ccc23)c(C(F)(F)F)nn1Cc1ccc(C(C)(C)C)cc1 [BAY-588]
  Cell Viability Ratio: 1.099

## O=C(O)c1ccc(-c2coc3ncc(-c4ccccc4)cc23)cc1Cl
  Cell Viability Ratio: 0.9757

## O[C@]1(C(F)(F)F)CCCC[C@H]1Nc1ccc(F)cc1 [BAY-390]
  Cell Viability Ratio: 0.968

## Cn1cncc1[C@@](O)(COc1ccc(C#N)cc1-c1ccc(OC(F)(F)F)cc1)c1ccc(C#N)cc1 [A-108]
  Cell Viability Ratio: 0.984

## CCCOc1ccc([C@@H]2[C@@H](C(=O)O)[C@H](c3ccc4c(c3)OCO4)CN2CC(=O)Nc2c(CC)cccc2CC)cc1 [A-1806262]
  Cell Viability Ratio: 1.041

## CC(=O)NCC(=O)N1[C@@H]2CC[C@H]1c1ccc(Nc3ncc(C(F)(F)F)c(NC4CCC4)n3)cc12 [PF-03814735]
  Cell Viability Ratio: 0.4683

## COc1cc(Nc2nccc(-c3cnn4nc(OC)ccc34)n2)cc(C(F)(F)F)c1
  Cell Viability Ratio: 1.735

## CN(c1ccnc(CNc2nc(Nc3ccc4c(c3)CC(=O)N4)ncc2C(F)(F)F)n1)S(C)(=O)=O [PF-00911705]
  Cell Viability Ratio: 1.1264

## CO[C@@H](C)c1c(Nc2ccc([C@@H](N(C)C(=O)C3CCS(=O)(=O)CC3)C(F)(F)F)cc2)cnc2cc(Cl)nn12 [NVS-MALT1-C]
  Cell Viability Ratio: 1.209

## Cc1ccc2nc(CNCCCOc3ccccc3)cc(O)c2c1 [UCSF924]
  Cell Viability Ratio: 1.046

## CCCOc1ccc([C@H]2[C@H](C(=O)O)[C@@H](c3ccc4c(c3)OCO4)CN2CC(=O)Nc2c(CC)cccc2CC)cc1 [A-192621]
  Cell Viability Ratio: 1.0774

## CC(=O)Nc1c(F)cc(C(=O)N[C@H]2CC[C@H](O)CC2)cc1O[C@@H](C)c1ccccc1 [GSK046]
  Cell Viability Ratio: 0.8182

## Cc1c(Oc2ccc(F)cc2)c(OC(C)C)nn1-c1ccc(C2CC2)cn1 [IPP/CNRS-A019]
  Cell Viability Ratio: 1.225

## Cn1cc(-c2ccc3occ(-c4cccc(-c5ccncc5)c4)c3n2)cn1
  Cell Viability Ratio: 0.9731

## CN(C)[C@@H]1CCN(c2cc(-c3ccccc3)nc3ccnn23)C1 [(R)-ZINC-3573]
  Cell Viability Ratio: 0.9989

## CC(C)C(=O)Nc1n[nH]c2cc(-c3cccc(NS(=O)(=O)C4CC4)c3)ccc12
  Cell Viability Ratio: 1.005

## O=C(Nc1cccnn1)N1CC(C/C=C/c2cncc(Oc3ccc(C(F)(F)F)cn3)n2)C1
  Cell Viability Ratio: 0.9954

## O=C(NCc1ncc(C(F)(F)F)cc1Cl)c1ccc2c(c1)C1(CCS(=O)(=O)CC1)[C@H](C1CC1)N2S(=O)(=O)c1ccc(F)cc1 [BAY-784]
  Cell Viability Ratio: 0.9106

## O=C(NCCN1CCOCC1)c1ccc2c(c1)C(=O)c1ccc(Nc3ccc(F)c(NC(=O)c4ccccc4)c3)cc1CC2 [FS-694]
  Cell Viability Ratio: 0.8259

## Cc1ccc(NC(=O)Nc2cc(C(F)(F)F)ccc2F)cc1Nc1ccc2c(c1)NC(=O)/C2=C\c1ccc[nH]1
  Cell Viability Ratio: 0.7659

## C[C@H](c1ccc(F)cc1)N(Cc1ccc(Cl)c(C(=O)O)c1)C(=O)c1cnc2ccccc2c1 [PF-05257137]
  Cell Viability Ratio: 1.055

## Cn1cc(Cl)c2c(Oc3c(F)cc(Nc4cc(Cl)nc(N)n4)cc3F)ccnc21 [BAY-4900]
  Cell Viability Ratio: 1.21

## Cn1c(-c2csc(C3CCN(CC4=NC5N=CC=CC5N4)CC3)n2)nc2ccccc21 (centres undefined) [BAY-070]
  Cell Viability Ratio: 0.9524

## COc1cc(Nc2ccnc3ccc(Br)cc23)cc(OC)c1OC
  Cell Viability Ratio: 1.477

## O=C(NCCCN1CCOC1=O)c1cnc(NCc2cc(Br)ccc2Br)nc1NC1CCCC1
  Cell Viability Ratio: 0.9691

## CC(C)(C)OC(=O)N1CCCC1CNC1CCC(c2cc(F)ccc2F)(S(=O)(=O)c2ccc(Cl)cc2)CC1 (centres undefined) [GSI-NC]
  Cell Viability Ratio: 0.9423

## CCOc1cn(-c2ccc(F)cc2C)nc1C(=O)Nc1ccc(Oc2ccnc3cc(OC)c(OC)cc23)c(F)c1
  Cell Viability Ratio: 0.8903

## CN(C)C(=O)/C(C#N)=C/c1ccc(-c2nc3cnc4c(ccn4C)c3n2C2CCCCC2)o1
  Cell Viability Ratio: 0.859

## Cc1c(N2CCCC2)nc2ccc(Br)cc2c1C(=O)NC[C@H](CCC(=O)O)c1ccccc1Cl [BAY-6672]
  Cell Viability Ratio: 0.9418

## COc1cc(N[C@@H]2CCCC[C@]2(O)C(F)(F)F)ccc1F [BAY-9897]
  Cell Viability Ratio: 0.9982

## CNC(=O)Nc1ccc2c(c1)CC[C@@]21OC(=O)N(CC(=O)N(Cc2ccc(F)cc2)[C@@H](C)C(F)(F)F)C1=O [A-485]
  Cell Viability Ratio: 0.9163

## CCOC(=O)c1c(/C(C#N)=C\N)c2ccc(Cl)c(Cl)c2n1C
  Cell Viability Ratio: 1.055

## CN(C)C(=O)/C(C#N)=C/c1ccc(-c2nc3cnc4[nH]ccc4c3n2C2CCCCC2)o1
  Cell Viability Ratio: 0.9378

## C[C@@]1(Cc2ccc(C#N)cc2)C(=O)N(c2cc(Cl)cc(Cl)c2)c2ncc(C(=O)NC3(c4nc(C5CCC5)no4)CC3)n21 [BI 9446]
  Cell Viability Ratio: 1.099

## CCNC(=O)c1cc2c(N3CCOC[C@@H]3C)ccnc2[nH]1
  Cell Viability Ratio: 0.9047

## CO[C@@H](C)c1c(Nc2ccc([C@H](N(C)C(=O)C3CCS(=O)(=O)CC3)C(F)(F)F)cc2)cnc2cc(Cl)nn12 [NVS-MALT1]
  Cell Viability Ratio: 0.853

## Cc1nc(Cc2cccc(C(F)(F)F)c2)sc1-c1ccc(C(N)=O)nc1 [TP-024n]
  Cell Viability Ratio: 1.0424

## Cn1nc(C(=O)NCc2ccc(C(=O)O)cc2)cc1-c1ccc2[nH]ccc2c1 [BI 4395]
  Cell Viability Ratio: 1.056

## CN(C(=O)c1ccccc1)c1cc(N(C)c2ccc3c(c2)CCc2ccc(C(=O)NCCN4CCOCC4)cc2C3=O)ccc1F [FM-743]
  Cell Viability Ratio: 0.9975

## CS(=O)(=O)c1cc(C2(NC(=O)c3cncc4c3cnn4-c3ccc(F)cc3)CC2)ccn1 [BI 639667]
  Cell Viability Ratio: 0.9024

## Cc1ccc2[nH]c(CNCCCc3ccncc3)cc(=O)c2c1 [UCSF924NC]
  Cell Viability Ratio: 1.116

## COc1cc(Nc2nc(C)cc(-c3cnn4nc(OC)ccc34)n2)cc(C(F)(F)F)c1
  Cell Viability Ratio: 0.9824

## O=C(NCc1ccccc1)c1ccc(S(=O)(=O)NCc2ccccc2)cc1
  Cell Viability Ratio: 1.216

## Cc1ccc(-c2cnc([C@@]3(O)CC[C@H](C(=O)O)C(C)(C)C3)s2)cc1Nc1cccc(C(F)(F)F)n1 [MRL-SYKi-NC]
  Cell Viability Ratio: 1.002

## COc1cccc(CNC(=O)c2nc3scc(CN(C)Cc4ccccc4)c3c(=O)[nH]2)c1 [T-26f]
  Cell Viability Ratio: 1.048

## FC(F)(F)c1ccc2c(c1)nc(-c1cccnc1)n2C1CC1 [MSD-CYP11B2-Negative-control]
  Cell Viability Ratio: 1.22

## CN(C)[C@H]1CCN(c2cc(-c3ccccc3)nc3ccnn23)C1 [(S)-ZINC-3573]
  Cell Viability Ratio: 1.093

## O=C(Nc1cccnn1)N1CCC(=Cc2cccc(Oc3ccc(C(F)(F)F)cn3)c2)CC1
  Cell Viability Ratio: 0.957

## Cc1c(NC(=O)c2ccc(C(C)(C)C)cc2)cccc1-c1cn(C)c(=O)c(Nc2ccc(C(=O)N3CCOCC3)cc2)n1
  Cell Viability Ratio: 0.9821

## CC(C)(O)c1cncc(-c2nc3ccc(F)cc3n2C2CC2)c1 [MSD-CYP11B2]
  Cell Viability Ratio: 0.9895

## CCCCN(CCCC)C(=O)CN1C[C@@H](c2cc(OC)c3c(c2)OCO3)[C@H](C(=O)O)[C@H]1CC(C)(C)CCC.Cl
  Cell Viability Ratio: 0.8768

## CN(C)c1ncnc(-c2ccc3nc(Nc4cc(CN5CCN(C(=O)CC(F)(F)F)CC5)ccn4)[nH]c3c2)c1Cl [BAY-440]
  Cell Viability Ratio: 0.922
